{"source": "paper PMC12406664", "about": "“New derivatives of 6-nitrocoumarin-3-thiosemicarbazone exhibit improved antiparasitic activity in the placenta against Trypanosoma cruzi and Toxoplasma gondii” (Antimicrobial Agents and Chemotherapy, 2025)", "key": {"[1]": {"tested_on": "T. gondii tachyzoites (strain RH)", "test": "ESR spin trapping with DMPO in T. gondii", "assay_type": "cell-based, Toxoplasma gondii", "settings": "compound about 1 mM, menadione 20 µM", "description": "Each tested hybrid was dissolved in spectroscopy-grade DMSO at an approximate concentration of 1 mM and added to a mixture containing Trypanosoma cruzi (Dm28c strain) or Toxoplasma gondii at a density of 50 × 10⁶ trypomastigotes or tachyzoites per mL, along with DMPO at a final concentration of 250 mM. Menadione (20 µM) was used as a positive control.\nAll spectra were acquired on the same scale after 15 scans."}, "[2]": {"tested_on": "T. gondii (RH strain) in BeWo cells", "test": "Infection of BeWo cells by T. gondii, infected cells counted by fluorescence microscopy", "assay_type": "cell-based, Toxoplasma gondii", "settings": "compound at IC50, untreated control 64 ± 6", "description": "The effect of the compounds on the infection of BeWo trophoblast cells by T. gondii and T. cruzi was assessed. The DNA of T. gondii and T. cruzi was quantified in infected BeWo cells treated for 24 hours under two conditions: co-incubation and post-infection treatment. […] Fluorescence microscopy was employed to quantify the number of infected cells. The resulting images were analyzed using ImageJ software to count both infected and uninfected cells.\nFor the microscopic analysis of BeWo cells infected with T. cruzi, the cells were washed with PBS to remove the supernatant, fixed with 90% cold methanol, rewashed with PBS, and incubated for 5 minutes with 1 µg/mL—1 4,6-diamidino-2-phenylindole (DAPI) (Molecular Probes). To analyze BeWo cells infected with T. gondii, cells were fixed with 90% cold methanol, washed with PBS containing 0.05% Tween, and blocked using 3% BSA for 1 hour at 37°C. Then, they were incubated with the primary monoclonal antibody Toxoplasma gondii (TP3): sc-52255 at a dilution of 1:500 with 1% BSA overnight at 4°C. Afterward, the samples were incubated with the FITC anti-mouse IgG secondary antibody at a dilution of 1:100 with 1% BSA for 1 hour at 37°C. Finally, they were washed with PBS containing 0.05% Tween and incubated for 5 minutes with DAPI. Subsequently, the sections were mounted in Vectashield (ScyTek ACA). Sections for the analysis of cell infection by T. cruzi and T. gondii were observed under an epifluorescence microscope (Motic BA 310), and images were captured with a Motic 5 camera. T. cruzi amastigotes were identified by their morphology, including nuclear size and the presence of a kinetoplast, and were analyzed and quantified using ImageJ. At least 500 cells per condition were analyzed, and infected and non-infected cells were counted for every 100 cells ([35], [70]).\n(§1) Cells or HPE were exposed to parasites. […] The following treatment conditions were used in both infection models. […] Untreated cells or HPE served as a negative control, and the compounds’ activity was compared with the reference drugs (NFX and PMN)."}, "[3]": {"tested_on": "HPE exposed to T. gondii tachyzoites", "test": "Histopathology of HPE infected with T. gondii", "assay_type": "cell-based, human", "settings": "IC50 concentration", "from_the_text": "as §1"}, "[4]": {"test": "Lipophilicity by reversed-phase TLC (RM)", "settings": "reverse phase-C18, DMSO/phosphate buffer pH 7.4 (70:30 vol/vol), RM = log[(1/Rf) – 1]", "method": "Lipophilicity was studied by reversed-phase TLC experiments. Precoated TLC plates SIL RP-18W/UV254 were used and eluted with DMSO/physiological serum (70:30, vol/vol). Stock solutions were prepared in pure DMSO (Aldrich) prior to use. The plates were developed in a closed chromatographic tank, dried, and the spots were located under UV light. The Rf values were averaged from three determinations and converted into RM values via the relationship: RM = log [(1/Rf)−1]"}, "[5]": {"tested_on": "T. gondii (RH strain) in HPE", "test": "T. gondii DNA load in infected human placental explants (HPE) by real-time qPCR", "assay_type": "cell-based, Toxoplasma gondii", "settings": "24 hour post-infection treatment, IC50 concentration", "description": "The effect on HPE infection of compounds 1 and 7 by Toxoplasma gondii and Trypanosoma cruzi, respectively, was evaluated. To do this, the DNA of the T. gondii or T. cruzi parasite was quantified by infecting HPE for 24 hours under treatment conditions of co-incubation of compounds with the parasite at the same time of infection, and with a 24 hour post-infection treatment. The compound’s IC50 concentration value previously obtained under both conditions was used.\nTerm human placentas were obtained from uncomplicated pregnancies via scheduled cesarean sections. Each patient provided informed consent for the experimental use of the placenta, and the study was approved by the ethics committee of Hospital San José, Servicio Salud Metropolitano Norte (N° 013/2022). Exclusion criteria for placental use included significant fetal anomalies, placental tumors, intrauterine infection, positive serology for Chagas disease, obstetric pathology, and any other maternal disease. Donor patients tested negative for T. gondii IgG/IgM antibodies. Organs were collected in sterile, cold PBS and processed within 30 minutes after delivery. Maternal and fetal surfaces of each placenta were discarded, and the villous tissue from the central part of the placental cotyledons was isolated. […] All the experiments were performed in triplicate in at least three different placentas.\nCells or HPE were exposed to parasites. […]\nSubsequently, cells were exposed to parasites at a 1:1 ratio (cell: parasite) for 24 hours. […] The resulting DNA was quantified using a μDrop Plate DNA quantification system on the Varioskan Flash multimode reader (Thermo Scientific, USA). […]\nAmplification was carried out using the CFX96 Touch Deep Well Real-Time PCR Detection System (Biorad, California, USA) with the following cycling program: initial denaturation at 95°C for 3 min, followed by 40 cycles of denaturation at 95°C for 5 s, annealing at 60°C for 30 s, and a dissociation stage ranging from 60°C to 95°C. The relative quantification analysis of the results was expressed as RQ values using the comparative […] (∆∆Ct) ([80])."}}, "note": "Entries after “also recorded” stand apart in the source; their conditions may differ."}
{"smiles": "C/C(=N\\NC(N)=S)c1c(O)c2cc([N+](=O)[O-])ccc2oc1=O", "note": "[Compound 1, (E)−2-(1-(4-hydroxy-6-nitro-2-oxo-2H-chromen-3-yl)ethylidene)hydrazine-1-carbothioamide]", "values": [{"measurement": "radical species detected by ESR spin trapping (DMPO)", "setting": "[1]", "value": "formation of only two spin adducts"}, {"measurement": "Infected cells (%)", "setting": "[2]; co-incubation 24 h", "value": "32 ± 7", "unit": "%"}, {"measurement": "Infected cells (%)", "setting": "[2]; post-infection treatment 24 h", "value": "52 ± 4", "unit": "%"}, {"measurement": "tissue damage in infected HPE (histopathology)", "setting": "[3]; co-incubation", "value": "prevented tissue damage induced by tachyzoites"}, {"measurement": "tissue damage in infected HPE (histopathology)", "setting": "[3]; post-infection treatment", "value": "did not reduce the parasitic load or mitigate tissue damage"}, {"measurement": "Lipophilicity (RM)", "setting": "[4]", "value": 0.00}, {"measurement": "effect on parasite DNA load", "setting": "[5]", "value": "not statistically significant; also recorded: did not reduce the parasitic load"}]}
